# Reference: US20240317712A1, “[…] DERIVATIVES AS INHIBITORS OF […]-PEPTIDE CYCLOTRANSFERASE AND […]-PEPTIDE CYCLOTRANSFERASE LIKE PROTEIN” (Boehringer Ingelheim International GmbH, priority 2023, published 2024)
# Assays:
# QPCT = target: T1, QPCT (Homo sapiens, UniProt Q16769); assay: Assay A: biochemical QPCT activity assay (MALDI-TOF MS, CD47 peptide substrate); conditions: 0.5 nM enzyme, 20 μM CD47 peptide substrate; read-out: Inhibition of QPCT: IC50
# T1 construct: purchased Origine (so in the source)
# Description: (§1) QPCT or QPCTL dependent conversion of N-terminal glutamine to pyroglutamate of CD47 was monitored via MALDI-TOF MS. Test compounds were dissolved in 100% DMSO and serially diluted into clear 1,536-well microtiter plates. Enzymatic reactions were set up in assay buffer containing 20 mM Tris pH 7.5, 0.1 mM TCEP, 0.01% BSA, and 0.001% Tween20. […] The plates were incubated for 10 min in a humidified incubator at 24° C. Subsequently, 2.5 µL of CD47 peptide substrate surrogate (^19[…]^33) was added to each well (final concentration: 10 μM for QPCTL/20 μM for QPCT). The plates were mixed for 30 sec at 1,000 rpm and subsequently incubated for 40 min in a humidified incubator at 24° C. […] The plates were sealed with an adhesive foil, mixed for 30 s at 1,000 rpm and stored at room temperature until preparation of the MALDI target plates. MALDI target plates were prepared as described previously. […] QPCT or QPCTL activity was monitored by calculating the ratio between product and internal standard signals followed by normalization to high (100% activity) and low (0% activity) controls. Determination of compound potencies was obtained by fitting the dose-response data to a four-parameter logistical equation.
# QPCTL = target: T2, QPCTL (Homo sapiens, UniProt Q9NXS2); assay: Assay A: biochemical QPCTL activity assay (MALDI-TOF MS, CD47 peptide substrate); conditions: 0.5 nM enzyme, 10 μM CD47 peptide substrate; read-out: Inhibition of QPCTL: IC50
# T2 construct: made in house
# Description: as §1
# [1] = system: SIRPα signalling induced by A549 cells; assay: Assay B: SIRPα signalling assay using A549 cells; assay type: cell-based; conditions: Homo sapiens, 48 h compound incubation, Jurkat PathHunter SIRPaV1 reporter cells, read-out: Inhibition of SIRPα signalling induced by A549 cells: IC50
# Description: (§2) Two cell types are independently used: the Raji cell line (lymphoblast-like human cell line derived from B lymphocytes from a Burkitt's lymphoma patient in 1963) and A549 cells (adenocarcinoma human alveolar basal epithelial cells).
# (§3) Test compounds were dissolved in 100% DMSO and serially diluted into a white 384-well microtiter cell culture plate (PerkinElmer #60076780 in case of Raji assay; PDL-coated plates Greiner #781945 in case of A549 assay), 5000 Raji cells (ATCC #CC86) or 5000 A549 cells (ATCC #CCL-185) in Assay Complete Cell Plating reagent 30 (DiscoverX 93-0563R30B) were added per well. The assay plate was incubated for 48 h at 37° C., 95% humidity and 5% CO2. 15000 reporter cells (Jurkat PathHunter SIRPaV1, DiscoverX #93-1135C19) were added to each well, and the plate was incubated for 5 h at 37° C., 95% humidity and 5% CO2. Bioassay reagent 1 of the PathHunter Bioassay detection kit (DiscoverX 93-0001) was added to each well of the plate using a multichannel pipette followed by a 15 min incubation at room temperature. Afterwards bioassay reagent 2 was added followed by 60 min incubation at room temperature (incubation in the dark). The analysis of the data was performed using the luminescence signal generated by beta-galactosidase in the PathHunter reporter cell line. The luminescence measurement was done using a Pherastar Multi-Mode Reader. Dose-response curves & IC50 data were calculated with 4-parameter sigmoidal dose response formula.
# [2] = system: SIRPα signalling induced by Raji cells; assay: Assay B: SIRPα signalling assay using Raji cells; assay type: cell-based; conditions: Homo sapiens, 48 h compound incubation, Jurkat PathHunter SIRPaV1 reporter cells, read-out: Inhibition of SIRPα signalling induced by Raji cells: IC50
# Description: as §2, §3
# [3] = Assay C: Permeability in CACO-2 cells; assay type: in vitro ADME; conditions: human, pH 7.2; for efflux ratio: Caco-2, permeability B−A/permeability A−B; for Papp A→B: Caco-2, apical to basolateral
# Description: Caco-2 cells (1-2×10^5 cells/1 cm^2 area) are seeded on filter inserts (Costar transwell polycarbonate or PET filters, 0.4 μm pore size) and cultured (DMEM) for 10 to 25 days. Compounds are dissolved in appropriate solvent (like DMSO, 1-20 mM stock solutions). […] The transport solution (TL) is applied to the apical or basolateral donor side for measuring A-B or B-A permeability (3 filter replicates), respectively. Samples are collected at the start and end of experiment from the donor and at various time intervals for up to 2 hours also from the receiver side for concentration measurement by HPLC-MS/MS or scintillation counting. Sampled receiver volumes are replaced with fresh receiver solution.
# Efflux ratio (ER)=permeability B−A/permeability A−B
# T2 sequence (Q9NXS2 whole entry): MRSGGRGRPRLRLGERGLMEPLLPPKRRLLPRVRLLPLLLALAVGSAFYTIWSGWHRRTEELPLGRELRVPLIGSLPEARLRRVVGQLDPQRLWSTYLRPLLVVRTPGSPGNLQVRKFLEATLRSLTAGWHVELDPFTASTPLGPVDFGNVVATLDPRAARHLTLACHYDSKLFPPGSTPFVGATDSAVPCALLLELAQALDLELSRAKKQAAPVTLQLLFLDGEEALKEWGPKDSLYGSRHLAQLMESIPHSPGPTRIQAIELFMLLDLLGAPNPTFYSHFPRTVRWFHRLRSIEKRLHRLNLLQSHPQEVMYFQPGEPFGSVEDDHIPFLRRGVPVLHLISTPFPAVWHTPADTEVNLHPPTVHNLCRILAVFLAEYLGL
# T1 sequence (Q16769 29-361): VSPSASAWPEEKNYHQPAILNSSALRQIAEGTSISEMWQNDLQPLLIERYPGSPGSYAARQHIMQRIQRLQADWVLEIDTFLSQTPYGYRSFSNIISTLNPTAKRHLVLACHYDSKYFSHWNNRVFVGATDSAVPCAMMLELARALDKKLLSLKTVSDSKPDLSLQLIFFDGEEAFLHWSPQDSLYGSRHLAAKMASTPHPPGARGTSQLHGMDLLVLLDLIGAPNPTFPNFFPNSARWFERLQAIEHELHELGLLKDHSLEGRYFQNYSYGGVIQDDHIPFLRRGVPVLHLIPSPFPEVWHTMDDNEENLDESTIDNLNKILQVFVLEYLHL
SMILES,IC50 (QPCT),IC50 (QPCTL),IC50 [1],IC50 [2],efflux ratio [3],Papp A→B [3]
"Cn1cnnc1C1CCN(c2ncccc2-c2cccnc2)CC1 [SEN180, reference compound]",176 nM,–,–,–,–,–
COC(=O)c1cc(C#N)c(N2CCC(c3nncn3C)CC2)c(-c2ccc(F)nc2)c1 [Example 15],12 nM,3 nM,218 nM,312 nM,9.2,5.3 ×10⁻⁶ cm/s
Cn1cnnc1C1CCN(c2c(-c3cnc4nn(C(C)(C)C)cc4c3)ccc(C(F)(F)F)c2C#N)CC1 [Example 32],2 nM,2 nM,36 nM,70 nM,146,0.2 ×10⁻⁶ cm/s
COc1ccc(C#N)c(N2CCC(c3nncn3C)CC2)c1-c1ccc(F)nc1 [Example 8],3 nM,1 nM,11 nM,44 nM,4.4,8.5 ×10⁻⁶ cm/s
"Nc1nnc(C2CCN(c3ncccc3-c3ccc(F)nc3)CC2)s1 [Prior art Compound 1095, reference compound]",260 nM,13 nM,–,–,–,–
Cn1cnnc1C1(F)CCN(c2c(C#N)cc(Cl)cc2-c2cnc3nn(C(C)(C)C)cc3c2)CC1 [Example 19],1 nM,1 nM,9 nM,9 nM,4.5,18 ×10⁻⁶ cm/s
Cn1cnnc1C1(F)CCN(c2c(C#N)cc(C(F)(F)F)cc2-c2cnc3nc(C4(C)CC4)nn3c2)CC1 [Example 35],2 nM,1 nM,6 nM,16 nM,17.1,4.8 ×10⁻⁶ cm/s
"Nc1ncc(C2CCN(c3ncccc3-c3ccc(F)nc3)CC2)s1 [Prior art Compound 1094, reference compound]",1710 nM,111 nM,3060 nM,–,–,–
Cn1cnnc1C1(F)CCN(c2c(-c3cnc4nn(C(C)(C)C)cc4c3)ccc(OCCC(C)(C)O)c2C#N)CC1 [Example 34],–,1 nM,73 nM,36 nM,–,–
Cn1cnnc1C1(F)CCN(c2c(C#N)cc(C(F)(F)F)cc2-c2cnc3nn(C(C)(C)C)cc3c2)CC1 [Example 1],1 nM,1 nM,11 nM,5 nM,3.2,25 ×10⁻⁶ cm/s
Cn1cnnc1C1(F)CCN(c2c(-c3cnc4nn(C(C)(C)C)cc4c3)ccc(C(F)(F)F)c2C#N)CC1 [Example 30],1 nM,1 nM,8 nM,19 nM,22.9,1.7 ×10⁻⁶ cm/s
Cn1cnnc1C1CCN(c2c(C#N)cc(F)cc2-c2cnc3nn(C(C)(C)C)c(Cl)c3c2)CC1 [Example 26],1 nM,1 nM,8 nM,16 nM,3.9,14 ×10⁻⁶ cm/s
Cn1cnnc1C1(F)CCN(c2c(C#N)cc(C(F)(F)F)cc2-c2cnc3nc(C(C)(C)C)nn3c2)CC1 [Example 2],1 nM,2 nM,7 nM,14 nM,6.9,8.9 ×10⁻⁶ cm/s
Cn1cnnc1C1CCN(c2c(-c3ccc(F)nc3)ccc(F)c2C#N)CC1 [Example 14],11 nM,2 nM,24 nM,124 nM,6.7,9.6 ×10⁻⁶ cm/s
Cn1cnnc1C1CCN(c2c(C#N)ccc(OC(F)F)c2-c2ccc(F)nc2)CC1 [Example 13],2 nM,2 nM,27 nM,96 nM,3.6,9.1 ×10⁻⁶ cm/s
Cn1cnnc1C1(F)CCN(c2c(C#N)cc(F)cc2-c2cnc3nn(C(C)(C)C)cc3c2)CC1 [Example 25],1 nM,2 nM,10 nM,23 nM,9.7,7.5 ×10⁻⁶ cm/s
Cn1cnnc1C1(F)CCN(c2c(-c3ccc(F)nc3)ccc(C(F)(F)F)c2C#N)CC1 [Example 29],2 nM,1 nM,19 nM,78 nM,1.4,53 ×10⁻⁶ cm/s
COc1cc(-c2cc(C(F)(F)F)cc(C#N)c2N2CCC(F)(c3nncn3C)CC2)cnn1 [Example 23],14 nM,21 nM,145 nM,278 nM,4.3,13 ×10⁻⁶ cm/s
Cn1cnnc1C1CCN(c2c(-c3ccc(F)nc3)ccc(C(F)(F)F)c2C#N)CC1 [Example 31],4 nM,1 nM,19 nM,77 nM,3.5,22 ×10⁻⁶ cm/s
Cn1cnnc1C1CCN(c2c(C#N)ccc(OCc3ccccc3)c2-c2ccc(F)nc2)CC1 [Example 12],1 nM,1 nM,14 nM,20 nM,2.6,19 ×10⁻⁶ cm/s
Cn1cnnc1C1CCN(c2c(C#N)cc(Cl)cc2-c2cnc3nn(C(C)(C)C)cc3c2)CC1 [Example 17],1 nM,1 nM,5 nM,17 nM,21.2,2.5 ×10⁻⁶ cm/s
Cn1cnnc1C1(F)CCN(c2c(-c3ccc(F)nc3)ccc(Cl)c2C#N)CC1 [Example 28],2 nM,2 nM,12 nM,93 nM,1.7,34 ×10⁻⁶ cm/s
Cn1cnnc1C1(F)CCN(c2c(C#N)cc(F)cc2-c2ccc(F)nc2)CC1 [Example 6],4 nM,3 nM,16 nM,47 nM,1.6,44 ×10⁻⁶ cm/s
Cn1cnnc1C1CCN(c2c(C#N)ccc(OCC3CC3)c2-c2ccc(F)nc2)CC1 [Example 11],2 nM,1 nM,43 nM,44 nM,3.2,28 ×10⁻⁶ cm/s
Cn1cnnc1C1(F)CCN(c2c(C#N)cc(Cl)cc2-c2ccc(F)nc2)CC1 [Example 18],4 nM,2 nM,24 nM,36 nM,1,66 ×10⁻⁶ cm/s
Cn1cnnc1C1(F)CCN(c2c(C#N)cc(F)cc2-c2cnc3nn(C(C)(C)C)c(Cl)c3c2)CC1 [Example 24],1 nM,2 nM,13 nM,16 nM,1.7,46 ×10⁻⁶ cm/s
Cn1cnnc1C1(F)CCN(c2c(-c3cnc4nn(C(C)(C)C)cc4c3)ccc(Cl)c2C#N)CC1 [Example 27],1 nM,1 nM,7 nM,19 nM,19.1,2.2 ×10⁻⁶ cm/s
Cn1cnnc1C1CCN(c2c(C#N)cc(C(F)(F)F)cc2-c2ccc(F)nc2)CC1 [Example 3],12 nM,3 nM,12 nM,19 nM,10.4,9 ×10⁻⁶ cm/s
COc1ccc(-c2cnc3nn(C(C)(C)C)cc3c2)c(N2CCC(F)(c3nncn3C)CC2)c1C#N [Example 33],1 nM,1 nM,11 nM,20 nM,51.9,0.8 ×10⁻⁶ cm/s
